Here are results for two molecules from article PMC9329436, “Optimization of the 4-anilinoquin(az)oline scaffold as epidermal growth factor receptor (EGFR) inhibitors for chordoma utilizing a toxicology profiling assay platform” (Scientific Reports, 2022).

Holding throughout (format): biochemical
The target in assay [1] is T1, 320 wild-type protein kinases (Homo sapiens, UniProt O14920).
T1 sequence (O14920 1-756): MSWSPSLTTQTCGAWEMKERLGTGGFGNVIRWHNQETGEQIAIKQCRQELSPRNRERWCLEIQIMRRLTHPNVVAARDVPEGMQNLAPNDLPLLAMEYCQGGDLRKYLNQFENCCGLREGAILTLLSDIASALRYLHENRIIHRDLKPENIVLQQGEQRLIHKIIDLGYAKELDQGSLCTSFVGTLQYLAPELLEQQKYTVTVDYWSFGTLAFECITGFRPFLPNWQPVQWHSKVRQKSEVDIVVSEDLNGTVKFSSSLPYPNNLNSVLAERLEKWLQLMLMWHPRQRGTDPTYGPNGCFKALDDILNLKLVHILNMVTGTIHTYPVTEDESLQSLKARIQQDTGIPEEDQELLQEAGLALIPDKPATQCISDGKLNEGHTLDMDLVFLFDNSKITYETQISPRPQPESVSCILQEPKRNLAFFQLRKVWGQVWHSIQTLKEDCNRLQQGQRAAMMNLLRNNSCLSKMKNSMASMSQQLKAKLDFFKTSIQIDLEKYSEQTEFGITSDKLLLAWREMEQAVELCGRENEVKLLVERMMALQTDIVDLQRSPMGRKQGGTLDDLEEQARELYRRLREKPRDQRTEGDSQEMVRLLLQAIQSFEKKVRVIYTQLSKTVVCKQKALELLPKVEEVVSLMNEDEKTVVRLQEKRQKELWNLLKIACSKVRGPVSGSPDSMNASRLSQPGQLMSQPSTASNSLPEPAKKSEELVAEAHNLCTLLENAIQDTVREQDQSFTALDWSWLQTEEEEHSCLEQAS
Conditions: IKK-beta, singlicate. The text has this: (§1) Table S4. Profiling of two compounds at two concentrations against 320 wild-type protein kinases; singlicate measurement; Residual activities (% of control).

Assay [2] deals with T2, 320 wild-type protein kinases (Homo sapiens, UniProt O14965).
T2 sequence (O14965 1-403): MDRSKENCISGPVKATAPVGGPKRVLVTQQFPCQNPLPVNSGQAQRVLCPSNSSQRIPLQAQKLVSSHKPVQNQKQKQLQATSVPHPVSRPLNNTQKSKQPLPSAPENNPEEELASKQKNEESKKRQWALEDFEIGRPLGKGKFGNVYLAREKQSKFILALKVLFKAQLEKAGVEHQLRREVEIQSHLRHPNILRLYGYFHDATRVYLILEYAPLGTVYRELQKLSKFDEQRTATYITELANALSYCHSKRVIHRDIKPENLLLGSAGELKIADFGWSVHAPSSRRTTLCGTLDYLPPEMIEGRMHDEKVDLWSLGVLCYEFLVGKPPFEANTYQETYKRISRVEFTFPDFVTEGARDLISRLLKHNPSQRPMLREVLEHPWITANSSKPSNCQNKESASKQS
Conditions: Aurora-A, singlicate.
Description: as §1

Assay [3] concerns the target 320 wild-type protein kinases (Homo sapiens, UniProt P11802). Conditions: singlicate.
Description: as §1

Assay [4] has as its target 320 wild-type protein kinases (Homo sapiens, UniProt P12931). Conditions: kinase SRC (GST-HIS-tag), singlicate.
Description: as §1

Assay [5] addresses 320 wild-type protein kinases (Homo sapiens, UniProt Q05397). The note with it: singlicate.
Description: as §1

Assay [6] concerns the target T3, 320 wild-type protein kinases (Homo sapiens, UniProt Q6XUX3).
T3 sequence (Q6XUX3 1-929): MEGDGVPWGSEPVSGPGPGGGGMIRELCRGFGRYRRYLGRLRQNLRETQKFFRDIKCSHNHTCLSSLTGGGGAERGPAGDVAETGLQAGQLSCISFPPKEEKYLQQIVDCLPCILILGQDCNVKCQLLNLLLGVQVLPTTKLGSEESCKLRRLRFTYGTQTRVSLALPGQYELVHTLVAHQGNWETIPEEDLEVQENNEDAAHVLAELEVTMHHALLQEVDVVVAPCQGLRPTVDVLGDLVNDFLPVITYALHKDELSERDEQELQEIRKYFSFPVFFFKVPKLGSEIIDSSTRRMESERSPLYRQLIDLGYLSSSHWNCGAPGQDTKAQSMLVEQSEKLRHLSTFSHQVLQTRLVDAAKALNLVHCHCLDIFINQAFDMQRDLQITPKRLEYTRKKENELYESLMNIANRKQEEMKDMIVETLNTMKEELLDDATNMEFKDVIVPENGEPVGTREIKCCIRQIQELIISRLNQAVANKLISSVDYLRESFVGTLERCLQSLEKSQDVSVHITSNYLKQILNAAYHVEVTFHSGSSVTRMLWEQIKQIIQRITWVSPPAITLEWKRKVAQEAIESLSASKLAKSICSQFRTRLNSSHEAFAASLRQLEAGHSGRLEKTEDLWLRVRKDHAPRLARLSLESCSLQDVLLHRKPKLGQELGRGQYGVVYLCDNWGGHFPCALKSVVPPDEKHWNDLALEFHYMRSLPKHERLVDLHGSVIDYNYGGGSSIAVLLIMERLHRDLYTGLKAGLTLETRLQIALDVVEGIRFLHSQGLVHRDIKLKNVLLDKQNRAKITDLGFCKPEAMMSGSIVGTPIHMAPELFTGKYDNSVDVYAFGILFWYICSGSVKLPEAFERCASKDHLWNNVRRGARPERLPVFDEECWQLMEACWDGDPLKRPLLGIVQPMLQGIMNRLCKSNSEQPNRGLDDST
Conditions: kinase RIPK5, singlicate.
Description: as §1

The target in assay [7] is 320 wild-type protein kinases (Homo sapiens, UniProt Q9Y6E0). The note with it: singlicate.
Description: as §1

Like-named read-outs stand apart in the source and are kept apart here.

Sequence of 320 wild-type protein kinases (Homo sapiens, UniProt P11802) (P11802 whole entry): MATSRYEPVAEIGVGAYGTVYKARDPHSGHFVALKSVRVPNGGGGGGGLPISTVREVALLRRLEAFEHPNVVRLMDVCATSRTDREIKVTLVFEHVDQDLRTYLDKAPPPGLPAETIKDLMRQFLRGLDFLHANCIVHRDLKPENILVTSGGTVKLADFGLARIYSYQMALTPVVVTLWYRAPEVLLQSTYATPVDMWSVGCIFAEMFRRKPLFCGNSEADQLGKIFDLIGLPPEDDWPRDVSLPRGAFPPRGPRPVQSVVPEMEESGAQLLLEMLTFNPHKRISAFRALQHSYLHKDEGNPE
Sequence of 320 wild-type protein kinases (Homo sapiens, UniProt Q9Y6E0) (Q9Y6E0 whole entry): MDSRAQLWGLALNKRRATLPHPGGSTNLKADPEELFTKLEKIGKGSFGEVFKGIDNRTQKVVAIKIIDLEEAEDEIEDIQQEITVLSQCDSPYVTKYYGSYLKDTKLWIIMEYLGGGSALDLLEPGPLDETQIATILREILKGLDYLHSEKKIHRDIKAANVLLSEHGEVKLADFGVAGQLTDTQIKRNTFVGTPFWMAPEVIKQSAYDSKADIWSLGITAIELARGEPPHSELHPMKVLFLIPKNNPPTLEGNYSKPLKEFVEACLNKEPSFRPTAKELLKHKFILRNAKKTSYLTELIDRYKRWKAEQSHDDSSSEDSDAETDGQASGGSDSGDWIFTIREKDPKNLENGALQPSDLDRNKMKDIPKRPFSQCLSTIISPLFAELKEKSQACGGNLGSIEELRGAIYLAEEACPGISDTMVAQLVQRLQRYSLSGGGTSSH
Sequence of 320 wild-type protein kinases (Homo sapiens, UniProt Q05397) (Q05397 whole entry): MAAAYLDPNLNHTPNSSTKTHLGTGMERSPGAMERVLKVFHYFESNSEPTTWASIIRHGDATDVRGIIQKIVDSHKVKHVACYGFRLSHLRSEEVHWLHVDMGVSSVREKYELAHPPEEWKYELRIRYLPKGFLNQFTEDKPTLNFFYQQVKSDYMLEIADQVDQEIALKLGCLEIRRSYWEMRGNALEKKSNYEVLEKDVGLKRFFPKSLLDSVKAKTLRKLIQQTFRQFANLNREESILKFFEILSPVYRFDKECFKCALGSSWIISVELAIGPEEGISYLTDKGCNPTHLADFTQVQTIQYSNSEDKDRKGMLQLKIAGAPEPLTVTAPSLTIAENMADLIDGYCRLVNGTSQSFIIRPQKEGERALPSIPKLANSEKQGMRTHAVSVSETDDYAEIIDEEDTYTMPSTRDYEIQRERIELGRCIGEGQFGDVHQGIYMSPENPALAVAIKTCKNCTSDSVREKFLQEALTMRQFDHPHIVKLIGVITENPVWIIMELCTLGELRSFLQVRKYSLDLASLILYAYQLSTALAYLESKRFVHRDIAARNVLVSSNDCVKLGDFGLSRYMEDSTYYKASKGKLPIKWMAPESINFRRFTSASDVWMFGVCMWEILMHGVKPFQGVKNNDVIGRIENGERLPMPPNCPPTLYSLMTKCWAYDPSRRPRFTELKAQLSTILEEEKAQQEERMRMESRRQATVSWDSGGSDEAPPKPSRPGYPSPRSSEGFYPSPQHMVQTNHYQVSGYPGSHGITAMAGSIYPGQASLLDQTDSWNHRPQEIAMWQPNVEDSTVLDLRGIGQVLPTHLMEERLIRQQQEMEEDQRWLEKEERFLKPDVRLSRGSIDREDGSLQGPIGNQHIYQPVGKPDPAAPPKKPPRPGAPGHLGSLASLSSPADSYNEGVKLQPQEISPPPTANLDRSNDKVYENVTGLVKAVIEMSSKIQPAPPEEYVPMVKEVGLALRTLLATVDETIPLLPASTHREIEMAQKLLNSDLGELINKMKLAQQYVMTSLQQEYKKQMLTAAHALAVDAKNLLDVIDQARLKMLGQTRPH
Sequence of 320 wild-type protein kinases (Homo sapiens, UniProt P12931) (P12931 whole entry): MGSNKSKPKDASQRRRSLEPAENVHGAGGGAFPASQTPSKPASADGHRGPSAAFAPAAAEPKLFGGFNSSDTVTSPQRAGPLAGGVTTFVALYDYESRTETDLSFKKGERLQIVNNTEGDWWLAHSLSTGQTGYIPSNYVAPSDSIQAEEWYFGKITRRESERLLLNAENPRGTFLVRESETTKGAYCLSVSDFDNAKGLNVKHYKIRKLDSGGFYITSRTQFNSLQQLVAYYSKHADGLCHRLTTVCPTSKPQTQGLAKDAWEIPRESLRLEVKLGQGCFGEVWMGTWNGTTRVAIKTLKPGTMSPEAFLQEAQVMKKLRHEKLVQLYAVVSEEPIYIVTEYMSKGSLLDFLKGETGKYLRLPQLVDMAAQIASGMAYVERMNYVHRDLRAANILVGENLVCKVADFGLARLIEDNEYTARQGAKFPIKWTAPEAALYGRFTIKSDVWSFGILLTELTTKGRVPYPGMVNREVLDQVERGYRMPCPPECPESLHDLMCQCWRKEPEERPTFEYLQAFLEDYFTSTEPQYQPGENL

As for `C#Cc1cc(Nc2ncnc3cc(OC)c(OC)cc23)ccc1Cl` [Compound 45], the Residual activity in assay [1] (1.0E-06 M) is 107 % of control; in assay [1] (1.0E-07 M), 121 % of control; in assay [2] (1.0E-06 M), 80 % of control; in assay [2] (1.0E-07 M), 99 % of control; in assay [3] (CDK4/CycD1, 1.0E-06 M) it was 95 % of control; in assay [3] (CDK4/CycD1, 1.0E-07 M), 87 % of control. Besides, the Residual activity is 87 % of control in assay [3] (CDK4/CycD3, 1.0E-06 M); 94 % of control in assay [3] (CDK4/CycD3, 1.0E-07 M); 95 % of control in assay [5] (FAK aa2-1052, 1.0E-06 M); 109 % of control in assay [5] (FAK aa2-1052, 1.0E-07 M); 94 % of control in assay [7] (MST3, 1.0E-06 M); 93 % of control in assay [7] (MST3, 1.0E-07 M). For the same molecule, the entries for the “Residual activity, SRC (GST-HIS-tag)” value in assay [4] (assay conc. 1.0E-06 M) and in assay [4] (assay conc. 1.0E-07 M) were 90 % of control and 100 % of control, respectively. In addition, the results for the “Residual activity, RIPK5” value in assay [6] (assay conc. 1.0E-06 M) and in assay [6] (assay conc. 1.0E-07 M) were 71 % of control and 84 % of control, respectively.
`C#Cc1cc(Nc2ncnc3cc(I)ccc23)ccc1Cl` [Compound 41]: the Residual activity is listed as 124 % of control in assay [1] (1.0E-06 M); 199 % of control in assay [1] (1.0E-07 M); 81 % of control in assay [2] (1.0E-06 M); 95 % of control in assay [2] (1.0E-07 M); 79 % of control in assay [3] (CDK4/CycD1, 1.0E-06 M); 75 % of control in assay [3] (CDK4/CycD1, 1.0E-07 M). The Residual activity in assay [3] (CDK4/CycD3, 1.0E-06 M) is listed as 87 % of control; in assay [3] (CDK4/CycD3, 1.0E-07 M) it was 94 % of control; in assay [5] (FAK aa2-1052, 1.0E-06 M) it was 106 % of control; in assay [5] (FAK aa2-1052, 1.0E-07 M), 138 % of control; in assay [7] (MST3, 1.0E-06 M), 104 % of control; in assay [7] (MST3, 1.0E-07 M), 116 % of control. The “Residual activity, SRC (GST-HIS-tag)” value in assay [4] (assay conc. 1.0E-06 M) is 86 % of control; in assay [4] (assay conc. 1.0E-07 M), 108 % of control. For the same molecule, the “Residual activity, RIPK5” value in assay [6] (assay conc. 1.0E-06 M) was 85 % of control; in assay [6] (assay conc. 1.0E-07 M) it was 96 % of control.
